Results: article PMC8247405 (British Journal of Clinical Pharmacology, 2020)

Assays:
[1] = tested on: renal transplant recipients; details: in vivo, cited from earlier work
[2] = tested on: type‐2 diabetes patients; details: human, in vivo; cited from earlier work
[3] = tested on: type‐2 diabetes patients; details: human, in vivo
[4] = tested on: type‐2 diabetes patients; details: human, in vivo; remark: listed apart in the source
[5] = tested on: type‐2 diabetes patients; details: human, in vivo; remark: listed apart in the source
[6] = tested on: type‐2 diabetes patients; set-up: species or system human; details: in vivo
[7] = tested on: patients; details: in vivo; cited from earlier work

Q: For CCCCCCCCc1ccc(CCC(N)(CO)CO)cc1 [fingolimod], which “effect on creatinine clearance” value ([1]; 2.5 mg) is on record?
A: Its value is “creatinine clearance impairment”.

Q: And the lymphocyte reduction [1]?
A: The lymphocyte reduction was 70–80%.

Q: For CCCc1nn(C)c2c(=O)[nH]c(-c3cc(S(=O)(=O)N4CCN(C)CC4)ccc3OCC)nc12 [sildenafil], which “FMD increase from baseline compared to placebo” value [2] is on record?
A: Its value is at least 3%.

Q: And the “FMD increases from baseline” value [2]?
A: Its value is 5–6%.

Q: And the “effect on FMD” value [2]?
A: Its value is “failed to improve FMD”.

Q: And the “vasodilatory effect (blood pressure, BAD)” value [3]?
A: Its value is “no blood pressure‐lowering or BAD increase”.

Q: And the “Patients with TEAE: Any class” value [4]?
A: The value was 5 (41.7%) n (%).

Q: What about the “Patients with TEAE: Arthropod sting” value [4] of the same compound?
A: The value was 0 n (%).

Q: And the “Patients with TEAE: Back pain” value [4]?
A: Its value is 1 (8.3%) n (%).

Q: What about the “Patients with TEAE: Cardiac disorders” value [4] of the same compound?
A: Its value is 1 (8.3%) n (%).

Q: What about the “Patients with TEAE: Contusion” value [4] of the same compound?
A: The value was 0 n (%).

Q: What about the “Patients with TEAE: Cough” value [4] of the same compound?
A: Its value is 0 n (%).

Q: What about the “Patients with TEAE: Diarrhoea” value [4] of the same compound?
A: The value was 2 (16.7%) n (%).

Q: And the “Patients with TEAE: Dyspepsia” value [4]?
A: The value was 1 (8.3%) n (%).

Q: What about the “Patients with TEAE: Epistaxis” value [4] of the same compound?
A: Its value is 0 n (%).

Q: And the “Patients with TEAE: Erythema” value [4]?
A: The value was 2 (16.7%) n (%).

Q: And the “Patients with TEAE: Gastroesophageal reflux disease” value [4]?
A: The value was 1 (8.3%) n (%).

Q: And the “Patients with TEAE: Gastrointestinal disorders” value [4]?
A: Its value is 3 (25.0%) n (%).

Q: And the “Patients with TEAE: General disorders and administration site conditions” value [4]?
A: The value was 0 n (%).

Q: And the “Patients with TEAE: Headache” value [4]?
A: Its value is 2 (16.7%) n (%).

Q: What about the “Patients with TEAE: Infections and infestations” value [4] of the same compound?
A: Its value is 1 (8.3%) n (%).

Q: And the “Patients with TEAE: Injury, poisoning and procedural complications” value [4]?
A: Its value is 0 n (%).

Q: What about the “Patients with TEAE: Leading to treatment discontinuation” value [4] of the same compound?
A: The value was 1 (8.3%) n (%).

Q: And the “Patients with TEAE: Musculoskeletal and connective tissue disorders” value [4]?
A: The value was 1 (8.3%) n (%).

Q: What about the “Patients with TEAE: Musculoskeletal pain” value [4] of the same compound?
A: Its value is 0 n (%).

Q: What about the “Patients with TEAE: Nasopharyngitis” value [4] of the same compound?
A: The value was 1 (8.3%) n (%).

Q: And the “Patients with TEAE: Nausea” value [4]?
A: Its value is 0 n (%).

Q: And the “Patients with TEAE: Neck pain” value [4]?
A: The value was 0 n (%).

Q: What about the “Patients with TEAE: Nervous system disorders” value [4] of the same compound?
A: The value was 2 (16.7%) n (%).

Q: And the “Patients with TEAE: Obstructive airways disorder” value [4]?
A: Its value is 0 n (%).

Q: And the “Patients with TEAE: Oropharyngeal pain” value [4]?
A: Its value is 1 (8.3%) n (%).

Q: What about the “Patients with TEAE: Orthostatic intolerance” value [4] of the same compound?
A: The value was 0 n (%).

Q: What about the “Patients with TEAE: Otitis externa” value [4] of the same compound?
A: The value was 0 n (%).

Q: What about the “Patients with TEAE: Palpitations” value [4] of the same compound?
A: Its value is 0 n (%).

Q: And the “Patients with TEAE: Pruritus” value [4]?
A: Its value is 0 n (%).

Q: And the “Patients with TEAE: Respiratory, thoracic and mediastinal disorders” value [4]?
A: Its value is 1 (8.3%) n (%).

Q: What about the “Patients with TEAE: Severe AE” value [4] of the same compound?
A: The value was 0 n (%).

Q: What about the “Patients with TEAE: Skin abrasion” value [4] of the same compound?
A: Its value is 0 n (%).

Q: And the “Patients with TEAE: Skin and subcutaneous tissue disorders” value [4]?
A: Its value is 2 (16.7%) n (%).

Q: And the “Patients with TEAE: Traumatic haematoma” value [4]?
A: Its value is 0 n (%).

Q: What about the “Patients with TEAE: Ventricular extrasystoles” value [4] of the same compound?
A: The value was 1 (8.3%) n (%).

Q: What about the “Patients with TEAE: Vessel puncture site haematoma” value [4] of the same compound?
A: The value was 0 n (%).

Q: What about the “Patients with TEAE: Vomiting” value [4] of the same compound?
A: Its value is 0 n (%).

Q: What about the heart rate change [5] of the same compound?
A: The heart rate change was “no change”.

Q: What about the “mean heart rate increase” value [5] of the same compound?
A: The value was 3–6 beats/min.

Q: What about the “FMD change versus placebo Mean estimate [95% CI]” value [6] of the same compound?
A: Its value is 0.88%.

Q: What about the FMD with treatment [6] of the same compound?
A: Its FMD with treatment is “about 5%”.

Q: For CCOC(=O)N1c2ccc(C(F)(F)F)cc2[C@@H](N(Cc2cc(C(F)(F)F)cc(C(F)(F)F)c2)C(=O)OC)C[C@H]1CC [torcetrapib], which “effect on FMD” value [7] is on record?
A: The value was “pharmacological decrease in FMD”.
